Patent US20160095867A1, “BET INHIBITION THERAPY FOR HEART DISEASE” (DANA-FARBER CANCER INSTITUTE, INC., priority 2013, published 2016)

System: NRVM
Experiment: PE-mediated cardiomyocyte hypertrophy in NRVM (cell area measurement)
Assay type: cell-based, rat
Conditions: equimolar doses (500 nM), PE 100 μM, 48 hours
Description: NRVM were isolated from the hearts of 2 day old Sprague-Dawley rat pups (Charles River) and maintained under standard conditions as described (Haldar et al., 2010). The cells were differentially plated for 1.5 h in cell culture dishes to remove contaminating non-myocytes. Unless otherwise stated, NRVM were plated at a density of 10^5 cells/mL. Cells were initially plated in growth medium (DMEM supplemented with 5% FBS, 100 U/mL penicillin-streptomycin, and 2 mM L-glutamine) for 24-36 hours and maintained in serum-free media thereafter (DMEM supplemented with 0.1% BSA, 1% insulin-transferrin-selenium liquid media supplement (Sigma 13146), 100 U/mL penicillin-streptomycin, and 2 mM L-glutamine). Media was changed every 2-3 days. Prior to stimulation with agonists, NRVM were maintained in serum-free medium for 48-72 hours. For hypertrophic stimulation, NRVM were incubated with JQ1 versus DMSO at indicated concentrations for 6 h followed by stimulation with PE (100 μM) for indicated timepoints.
NRVM were plated on glass coverslips in 6-well dishes at a density of 10^5 cells/mL. After treatments, cells were briefly fixed in PBS containing 2% PFA, permeabilized with PBST/0.1% Triton X-100, and blocked in PBST/5% horse serum. Primary antibody was anti-sarcomeric α-actinin (Sigma A7811) at 1:800. Fluorophore-tagged anti-mouse secondary antibody (α-mouse Alexa 488 green) was used at 1:1000 dilution. Coverslips were mounted on glass slides with mounting media containing DAPI. Quantitation of cardiomyocyte cell surface area was performed on α-actinin-stained cardiomyocytes using fluorescent microscopy and NIH Image J software as previously described (Liang et al., 2001). Analysis consisted of at least 100 cardiomyocytes in 20-30 fields at 400× magnification. This process was replicated in a least three independent experiments, and the data were combined.

Row | Structure (SMILES) | inhibition of agonist-induced cardiomyocyte hypertrophy (cell area)
1 | COc1cc(OC)c2c(=O)[nH]c(-c3cc(C)c(OCCO)c(C)c3)nc2c1 [RVX-208] | inhibition of agonist-induced cardiomyocyte hypertrophy was indeed a class effect
2 | COc1cc2c(cc1-c1c(C)noc1C)ncc1[nH]c(=O)n([C@H](C)c3ccccn3)c12 [iBET-151] | inhibition of agonist-induced cardiomyocyte hypertrophy was indeed a class effect
3 | CCNC(=O)C[C@@H]1N=C(c2ccc(Cl)cc2)c2cc(OC)ccc2-n2c(C)nnc21 [iBET] | inhibition of agonist-induced cardiomyocyte hypertrophy was indeed a class effect
